Laboratory results published in publication PMC11277446, “Discovery of Cell-Permeable Allosteric Inhibitors of Liver Pyruvate Kinase: Design and Synthesis of Sulfone-Based Urolithins” (International Journal of Molecular Sciences, 2024).

Experiments:
[1] = target: T1, PKL (Homo sapiens, UniProt P30613); test: Pyruvate kinase activity kinetic assay on HepG2 KO (PKL only) cell protein lysate; format: biochemical; conditions: read-out: IC50 of PKL enzymatic activity inhibition
T1 construct: HepG2 KO cells were lysed and protein lysated with CelLytic M; host or cells: HepG2 PKM CRISPR KO cells
T1 sequence (P30613 1-543 isoform P30613-2): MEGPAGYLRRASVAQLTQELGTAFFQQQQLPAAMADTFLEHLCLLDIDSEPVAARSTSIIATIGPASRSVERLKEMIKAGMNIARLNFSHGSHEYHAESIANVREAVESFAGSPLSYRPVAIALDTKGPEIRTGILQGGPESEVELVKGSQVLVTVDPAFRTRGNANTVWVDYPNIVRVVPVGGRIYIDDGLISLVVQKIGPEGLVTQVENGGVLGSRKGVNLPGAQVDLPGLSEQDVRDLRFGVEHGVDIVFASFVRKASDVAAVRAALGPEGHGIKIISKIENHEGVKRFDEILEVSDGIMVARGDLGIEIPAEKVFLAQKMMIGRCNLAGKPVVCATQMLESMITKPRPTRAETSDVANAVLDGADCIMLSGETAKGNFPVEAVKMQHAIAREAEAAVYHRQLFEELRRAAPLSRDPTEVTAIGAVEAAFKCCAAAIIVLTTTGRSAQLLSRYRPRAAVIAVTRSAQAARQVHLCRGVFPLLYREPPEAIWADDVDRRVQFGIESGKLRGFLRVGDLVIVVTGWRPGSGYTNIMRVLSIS

[2] = target: T1, PKL; test: as above; format: biochemical
Protocol: (§1) HepG2 KO cells were lysed and protein lysated with CelLytic M (C2978, Sigma-Aldrich, St. Louis, MO, USA) lysis buffer. The effect of 10 µM compounds on pyruvate kinase activity on protein lysate was measured with the Pyruvate Kinase Assay Kit (ab83432, Abcam, Cambridge, UK), followed by the manufacturer’s instructions. 2 × 10^4 HepG2 WT cells and 1 × 10^5 HepG2 KO cells were seeded into 96-well plates for a pyruvate kinase activity assay on cells. Drugs were treated at 20 µM concentration on the cell for 4 h and washed with 250 µL of PBS. Cells were lysed with 50 µL PK assay buffer (ab83432, Abcam) and started reaction and kinetic O.D measurement with 50 µL PK assay buffer that contained the assay component (ab83432, Abcam). O.D. values were measured with a microplate reader (Hidex Sense Beta Plus, Turku, Finland) at 570 nm wavelength.

[3] = system: PKL; conditions: Figure 2, background data; cited from earlier work
[4] = system: PKL; parameters: method as in PMID 36753880; conditions: 10 μM in liver cell lysate; cited from earlier work
[5] = system: HepG2 de novo lipogenic (DNL) steatosis model; parameters: method as in PMID 37674987; conditions: cited from earlier work
[6] = target: T2, PKM (Homo sapiens, UniProt P14618); test: Cellular Thermal Shift Assay (CETSA), PKM; format: cell-based; conditions: HepG2 WT cells, 2 h treatment, 60 °C heat shock 5 min, western blot
T2 construct: HepG2 WT cells were trypsinized and transferred into a 1.5 mL tube; host or cells: HepG2 WT cells
T2 sequence (P14618 2-531 limits assumed): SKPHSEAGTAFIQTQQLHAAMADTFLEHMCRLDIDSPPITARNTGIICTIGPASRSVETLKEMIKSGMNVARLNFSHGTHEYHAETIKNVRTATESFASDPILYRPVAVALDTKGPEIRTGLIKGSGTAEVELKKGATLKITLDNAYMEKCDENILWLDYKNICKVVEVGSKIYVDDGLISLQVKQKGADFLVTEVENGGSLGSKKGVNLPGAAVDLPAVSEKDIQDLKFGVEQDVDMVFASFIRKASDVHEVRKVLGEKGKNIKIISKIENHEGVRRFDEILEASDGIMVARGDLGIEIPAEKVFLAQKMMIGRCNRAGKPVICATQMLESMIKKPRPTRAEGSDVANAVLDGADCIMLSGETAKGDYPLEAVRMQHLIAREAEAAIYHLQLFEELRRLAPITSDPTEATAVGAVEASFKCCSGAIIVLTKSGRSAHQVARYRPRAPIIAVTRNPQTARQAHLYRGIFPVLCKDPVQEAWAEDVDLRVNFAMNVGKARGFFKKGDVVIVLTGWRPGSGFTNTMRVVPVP
Protocol: (§2) HepG2 WT cells were trypsinized and transferred into a 1.5 mL tube at 500,000 cells per mL concentration. Compound 15e was treated with 10 µM and 20 µM in the 1.5 mL tube and incubated for 2 h in a 37 °C CO2 incubator. Tubes sustained heat shock at 60 °C for 5 min. with a pre-heated heat block. After centrifugation for heated cells at 13,000 rpm for 1 min, cell pellets were lysed with 50 µL of Native lysis Buffer (ab156035, Abcam). Centrifugation was again used to purify soluble proteins in a lysed solution, and the same volume (9 µL) of each group was analyzed using Western blot.

[7] = target: T1, PKL; test: Cellular Thermal Shift Assay (CETSA), PKL; format: cell-based; conditions: HepG2 WT cells, 2 h treatment, 60 °C heat shock 5 min, western blot
Protocol: as §2

[8] = system: FASN; test: Western blot of DNL pathway proteins in HepG2 steatosis model, FASN; format: cell-based, human; conditions: 5 µM, one week
Protocol: (§3) After steatosis induction with a designated concentration of compounds, whole cell lysate was prepared with CelLytic M (C2978, Sigma-Aldrich) buffer. SDS PAGE was performed using Mini-PROTEAN® TGX™ Precast Gels (Bio-Rad, Hercules, CA, USA) and transferred using the Trans-Blot® Turbo™ Transfer System (Bio-Rad). FASN (ab22759, Abcam), ChREBP (92809, Abcam), PKL (06653, Sigma), PKM (4053S, Cell Signaling Technology, Danvers, MA, USA), β-actin (ab8227, Abcam), and GAPDH (sc-47724, Santa Cruz Biotechnology, Inc., Dallas, TX, USA) were blotted as primary antibodies overnight. Secondary antibodies, Goat Anti-Rabbit HRP (ab205718, Abcam) and goat anti-mouse IgG-HRP (sc2005, Santa Cruz Biotechnology, Inc.), were blotted for one hour. The protein band was detected with ImageQuantTMLAS 500 (29-0050-63, GE Healthcare Bio-Sciences AB, Uppsala, Sweden).

[9] = system: PKL; test: Western blot of DNL pathway proteins in HepG2 steatosis model, PKL; format: cell-based, human; conditions: 5 µM, one week
Protocol: as §3

[10] = system: PKM; test: Western blot of DNL pathway proteins in HepG2 steatosis model, PKM; format: cell-based, human; conditions: 5 µM, one week
Protocol: as §3

[11] = system: PK activity in HepG2 WT cells (PKM and PKL); test: Pyruvate kinase activity assay on compound-treated HepG2 WT cells; format: cell-based, human; conditions: 20 µM, 4 h
Protocol: as §1

[12] = system: ChREBP; test: Western blot of DNL pathway proteins in HepG2 steatosis model, ChREBP; format: cell-based, human; conditions: 5 µM, one week
Protocol: as §3

[13] = target: T3, PKL in HepG2 KO cells (Homo sapiens, UniProt P30613); test: Pyruvate kinase activity assay on compound-treated HepG2 KO cells (whole-cell assay); format: cell-based
T3 construct: host or cells: HepG2 PKM CRISPR KO cells
T3 sequence (P30613 1-543 isoform P30613-2): as the sequence (P30613 1-543 isoform P30613-2) above
Protocol: as §1

[14] = system: HepG2 de novo lipogenic (DNL) steatosis model; test: MTT cell viability assay in HepG2 DNL steatosis model; format: cell-based, human
Protocol: HepG2 wild-type cells and HepG2 PKM CRISPR KO cells were purchased from the genome engineering company Synthego (Menlo Park, CA, USA). Cells were maintained with growth media RPMI 1640 (R2405, Sigma-Aldrich) and supplemented with 10% fetal bovine serum (FBS, F7524, Sigma-Aldrich) and 1% P/S (P4333, Sigma-Aldrich). Steatosis induction media was prepared as DMEM high glucose (D0819, Sigma-Aldrich) with 10% FBS, 1% P/S media supplemented with 10 µg/mL insulin (I9278, Sigma-Aldrich), and 10 µM T0901317 (T2320, Sigma-Aldrich) for one week. HepG2 cells were seeded 6 × 10^4 cells per well into a 96-well plate for TAG and MTT assays after steatosis and 1 × 10^6 cells per well into a 6-well plate for western blot analysis after steatosis. […]
HepG2 cells were seeded at 6 × 10^4 cells per well into 96-well plates and induced steatosis for one week with a designated concentration of small molecules. After steatosis induction, cells were washed with 200 µL of PBS, and triglyceride contents were measured by the Triglyceride Assay Kit-Quantification (ab65336, Abcam) following the manufacturer’s instructions. O.D. values were detected with a microplate reader at 570 nm (Hidex Sense Beta Plus). […] Cell viability was analyzed by measuring the absorbance of the dissolved formazan in a microplate reader at a wavelength of 570 nm with a microplate reader (Hidex Sense Beta Plus).

[15] = system: HepG2 de novo lipogenic (DNL) steatosis model; test: TAG measurement in HepG2 DNL steatosis model; format: cell-based, human; conditions: one week
Protocol: HepG2 wild-type cells and HepG2 PKM CRISPR KO cells were purchased from the genome engineering company Synthego (Menlo Park, CA, USA). Cells were maintained with growth media RPMI 1640 (R2405, Sigma-Aldrich) and supplemented with 10% fetal bovine serum (FBS, F7524, Sigma-Aldrich) and 1% P/S (P4333, Sigma-Aldrich). Steatosis induction media was prepared as DMEM high glucose (D0819, Sigma-Aldrich) with 10% FBS, 1% P/S media supplemented with 10 µg/mL insulin (I9278, Sigma-Aldrich), and 10 µM T0901317 (T2320, Sigma-Aldrich) for one week. HepG2 cells were seeded 6 × 10^4 cells per well into a 96-well plate for TAG and MTT assays after steatosis and 1 × 10^6 cells per well into a 6-well plate for western blot analysis after steatosis. HepG2 cells were incubated with steatosis-inducing media for one week by 3 days + 2 days + 2 days with a total of three media exchanges.
HepG2 cells were seeded at 6 × 10^4 cells per well into 96-well plates and induced steatosis for one week with a designated concentration of small molecules. After steatosis induction, cells were washed with 200 µL of PBS, and triglyceride contents were measured by the Triglyceride Assay Kit-Quantification (ab65336, Abcam) following the manufacturer’s instructions. O.D. values were detected with a microplate reader at 570 nm (Hidex Sense Beta Plus). A 5 mg/mL MTT (M2128, Sigma-Aldrich) solution in PBS (10 µL) was added to each well for the MTT assay. After 1 h, the MTT solution and all media were removed from the wells. 100 μL of DMSO was added and mixed to dissolve the formazan crystals. Cell viability was analyzed by measuring the absorbance of the dissolved formazan in a microplate reader at a wavelength of 570 nm with a microplate reader (Hidex Sense Beta Plus).

O=S1(=O)c2cc(O)c(O)cc2-c2cc(O)c(O)cc2N1Cc1ccccc1 [15d, 6-benzyl-2,3,8,9-tetrahydroxy-6H-dibenzo[c,e][1,2]thiazine 5,5-dioxide]
IC50 [1]: 7.1 µM
inhibition at 10 µM [2]: 29.8%

O=S(=O)(NCc1ccc(F)cc1)c1cc(O)c(O)cc1-c1ccc(O)c(O)c1 [12d, N-(4-fluorobenzyl)-3′,4,4′,5-tetrahydroxy-[1,1′-biphenyl]-2-sulfonamide]
IC50 [1]: 18.7 µM
inhibition at 10 µM [2]: 44.1%

O=S1(=O)c2cc(O)c(O)cc2-c2ccc(C(F)(F)F)cc2N1Cc1ccc(F)cc1 [18e, 6-(4-fluorobenzyl)-2,3-dihydroxy-8-(trifluoromethyl)-6H-dibenzo[c,e][1,2]thiazine 5,5-dioxide]
melting point: 189 to 190 °C

O=c1oc2c(O)c(O)cc3c(=O)oc4c(O)c(O)cc1c4c23 [Ellagic acid, ellagic acid]
inhibition on whole cell assay [3]: didn't observe inhibition on whole cell assay
inhibition of PKL [4]: 21%

N#Cc1c(NC(=O)c2cccc3ccccc23)sc2c1CCCC2 [JNK-IN-5A]
effect on TAG [5]: reduced TAG

O=S1(=O)c2cc(O)c(O)cc2-c2ccc(C(F)(F)F)cc2N1Cc1ccccc1 [15e, 6-benzyl-2,3-dihydroxy-8-(trifluoromethyl)-6H-dibenzo[c,e][1,2]thiazine 5,5-dioxide]
increase in PKM level (CETSA) [6]: 12%
decrease in PKL level (CETSA) [7]: 38%
reduction in expression level of FASN [8]: up to 79%
IC50 [1]: 10.8 µM
reduction in expression level of PKL [9]: 45%
protein level of PKM [10]: remained unaffected
inhibition at 10 µM [2]: 42.9%
activation of PK activity [11]: 9%
protein level of ChREBP [12]: remained unaffected
activity at 20 µM ([13]; 20 µM in culture media for 4 h, HepG2 KO cells): 67.1%
PKL inhibition in whole cells ([13]; 20 µM, 4 h, HepG2 KO cells): significant PKL inhibition
inhibition at 20 µM ([13]; 20 µM, 4 h, HepG2 KO cells (PKL only), Figure 6a, read-out: inhibition of PK activity): 25%
cytotoxicity ([14]; 5 µM to 0.625 µM, one week): did not show cytotoxicity
toxicity ([14]; 10 µM, one-week DNL steatosis procedure): high toxicity
TAG contents ([15]; 0.625 µM): 80.4% ± 3.2
TAG contents ([15]; 1.25 µM): 62.7% ± 2.9
TAG contents ([15]; 2.5 µM): 56.3% ± 1.9
TAG contents ([15]; 5 µM): 55.6% ± 2.4

O=S1(=O)c2cc(O)c(O)cc2-c2cc(O)ccc2N1Cc1ccc(F)cc1 [18a, 6-(4-fluorobenzyl)-2,3,9-trihydroxy-6H-dibenzo[c,e][1,2]thiazine 5,5-dioxide]
IC50 [1]: 11.5 µM
inhibition at 10 µM [2]: 50.8%

O=S(=O)(NCc1ccccc1)c1cc(O)c(O)cc1-c1ccc(O)c(O)c1 [9d, N-benzyl-3′,4,4′,5-tetrahydroxy-[1,1′-biphenyl]-2-sulfonamide]
IC50 [1]: 4.3 µM
inhibition at 10 µM [2]: 40.9%

O=c1oc2cc(O)ccc2c2cc(O)c(O)cc12 [Urolithin C, urolithin C, reference compound]
IC50 [1]: 4.7 µM
inhibition of PKL [4]: 33%
inhibition at 10 µM [2]: 33%
PKL inhibition in whole cells ([13]; 20 µM, 4 h, HepG2 KO cells): did not inhibit PKL activity in cells

O=S1(=O)c2cc(O)c(O)cc2-c2cc(O)ccc2N1Cc1ccccc1 [15a, 6-benzyl-2,3,9-trihydroxy-6H-dibenzo[c,e][1,2]thiazine 5,5-dioxide]
IC50 [1]: 17.3 µM
inhibition at 10 µM [2]: 47.6%
